Results taken from patent US20210045385A1, “PYRIDAZINONE-SUBSTITUTED KETOXIMES AS HERBICIDES” (FMC Corporation, priority 2018, published 2021).

Key:
Assay type in all cases: in vivo
[1] = tested on: Italian ryegrass (Lolium mutiflorum); experiment: Test C preemergence, visual plant response rating
How it was run: (§1)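 Compounds in a non-phytotoxic solvent with surfactant were applied as a directed soil spray preemergence or to 2–10 cm, one- to two-leaf plants postemergence, in loam–sand soil. After about 10 d in a greenhouse, injury was visually rated against untreated controls on a 0–100 scale (100 = complete control).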

[2] = tested on: barnyardgrass (Echinochloa crus-galli); experiment: Test C preemergence, visual plant response rating
How it was run: as §1

[3] = tested on: foxtail, giant (giant foxtail, Setaria faberi); experiment: Test C preemergence, visual plant response rating
How it was run: as §1

kochia (Bassia scoparia) [4] = experiment: Test C preemergence, visual plant response rating
How it was run: as §1

[5] = tested on: pigweed (Amaranthus retroflexus); experiment: Test C preemergence, visual plant response rating
How it was run: as §1

[6] = tested on: ragweed (common ragweed, Ambrosia artemisiifolia); experiment: Test C preemergence, visual plant response rating
How it was run: as §1

[7] = tested on: Italian ryegrass (Lolium mutiflorum); experiment: Test C postemergence, visual plant response rating
How it was run: as §1

[8] = tested on: barnyardgrass (Echinochloa crus-galli); experiment: Test C postemergence, visual plant response rating
How it was run: as §1

[9] = tested on: blackgrass (Alopecurus myosuroides); experiment: Test C postemergence, visual plant response rating
How it was run: as §1

corn (Zea mays) = experiment: Test C postemergence, visual plant response rating
How it was run: as §1

[10] = tested on: foxtail, giant (giant foxtail, Setaria faberi); experiment: Test C postemergence, visual plant response rating
How it was run: as §1

[11] = tested on: galium (catchweed bedstraw, Galium aparine); experiment: Test C postemergence, visual plant response rating
How it was run: as §1

kochia (Bassia scoparia) [12] = experiment: Test C postemergence, visual plant response rating
How it was run: as §1

[13] = tested on: pigweed (Amaranthus retroflexus); experiment: Test C postemergence, visual plant response rating
How it was run: as §1

[14] = tested on: ragweed (common ragweed, Ambrosia artemisiifolia); experiment: Test C postemergence, visual plant response rating
How it was run: as §1

[15] = tested on: wheat (Triticum aestivum); experiment: Test C postemergence, visual plant response rating
How it was run: as §1

[16] = tested on: barnyardgrass (Echinochloa crus-galli); experiment: Test D flooded paddy test, visual plant response rating; details: 250 g ai/ha, scale 0 to 100 (0 no effect, 100 complete control), 13 to 15 d
How it was run: (§2)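 2-leaf plants, flooded 3 cm, cpd into paddy water; greenhouse 13–15 d; visual rating vs controls, 0 = no effect, 100 = complete control; dash = no result.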

[17] = tested on: duck salad (Heteranthera limosa); experiment: as above; details: 250 g ai/ha, scale 0 to 100 (0 no effect, 100 complete control), 13 to 15 d
How it was run: as §2

rice (Oryza sativa) = experiment: as above; details: 250 g ai/ha, scale 0 to 100 (0 no effect, 100 complete control), 13 to 15 d
How it was run: as §2

[18] = tested on: sedge umbrella (small-flower umbrella sedge, Cyperus difformis); experiment: as above; details: 250 g ai/ha, scale 0 to 100 (0 no effect, 100 complete control), 13 to 15 d
How it was run: as §2

[19] = Test C, 31 g ai/ha, 0 is no effect, 100 is complete control
[20] = Test C, postemergence, 125 g ai/ha
[21] = Test C, postemergence, 31 g ai/ha
[22] = Test C, 125 g ai/ha, 0 is no effect, 100 is complete control

CO/N=C(/c1cc(Cl)cc(Br)c1)c1c(O)c(C)nn(C)c1=O [Compound 156]
30: Blackgrass plant response rating (0 to 100 scale) [9, 21] | Blackgrass plant response rating (0 to 100 scale) [9, 20] | Plant response rating, Ducksalad (Flood) [17] | Plant response rating, Sedge, Umbrella (Flood) [18]
60: Foxtail, Giant plant response rating (0 to 100 scale) [10, 21]
0: Barnyardgrass plant response rating (0 to 100 scale) [2, 19] | Wheat plant response rating (0 to 100 scale) ([15]; Postemergence, 31 g ai/ha) | Plant response rating, Barnyardgrass (Flood) [16] | Plant response rating, Rice (Flood) (rice (Oryza sativa))
70: Barnyardgrass plant response rating (0 to 100 scale) [8, 20] | Pigweed plant response rating (0 to 100 scale) ([13]; Postemergence, 31 g ai/ha)
100: Ryegrass, Italian plant response rating (0 to 100 scale) ([1]; 125 g ai/ha) | Ryegrass, Italian plant response rating (0 to 100 scale) [1, 19] | Foxtail, Giant plant response rating (0 to 100 scale) ([3]; 125 g ai/ha) | Kochia plant response rating (0 to 100 scale) (kochia (Bassia scoparia) [4]; 125 g ai/ha) | Ragweed plant response rating (0 to 100 scale) ([6]; 125 g ai/ha) | Ragweed plant response rating (0 to 100 scale) [6, 19] | Ryegrass, Italian plant response rating (0 to 100 scale) ([7]; Postemergence, 31 g ai/ha) | Ryegrass, Italian plant response rating (0 to 100 scale) [7, 20] | Galium plant response rating (0 to 100 scale) [11, 21] | Galium plant response rating (0 to 100 scale) [11, 20] | Kochia plant response rating (0 to 100 scale) (kochia (Bassia scoparia) [12]; [20]) | Ragweed plant response rating (0 to 100 scale) [14, 20]
40: Kochia plant response rating (0 to 100 scale) (kochia (Bassia scoparia) [4]; [19]) | Pigweed plant response rating (0 to 100 scale) [5, 19] | Barnyardgrass plant response rating (0 to 100 scale) [8, 21]
20: Corn plant response rating (0 to 100 scale) (corn (Zea mays); [21]) | Corn plant response rating (0 to 100 scale) (corn (Zea mays); [20])
50: Foxtail, Giant plant response rating (0 to 100 scale) [3, 19] | Wheat plant response rating (0 to 100 scale) [15, 20]
90: Foxtail, Giant plant response rating (0 to 100 scale) [10, 20] | Ragweed plant response rating (0 to 100 scale) ([14]; Postemergence, 31 g ai/ha)
80: Barnyardgrass plant response rating (0 to 100 scale) ([2]; 125 g ai/ha) | Pigweed plant response rating (0 to 100 scale) ([5]; 125 g ai/ha) | Kochia plant response rating (0 to 100 scale) (kochia (Bassia scoparia) [12]; [21]) | Pigweed plant response rating (0 to 100 scale) [13, 20]

CON=C(c1cc(Cl)cc(F)c1Cl)c1c(O)c(C)nn(C)c1=O [Compound 272]
70: Pigweed plant response rating (0 to 100 scale) [5, 19] | Kochia plant response rating (0 to 100 scale) (kochia (Bassia scoparia) [12]; Postemergence, 31 g ai/ha) | Pigweed plant response rating (0 to 100 scale) ([13]; Postemergence, 31 g ai/ha)
60: Barnyardgrass plant response rating (0 to 100 scale) [8, 20] | Foxtail, Giant plant response rating (0 to 100 scale) ([10]; Postemergence, 31 g ai/ha) | Ragweed plant response rating (0 to 100 scale) ([14]; Postemergence, 31 g ai/ha) | Wheat plant response rating (0 to 100 scale) [15, 20] | Plant response rating, Ducksalad (Flood) [17]
90: Ryegrass, Italian plant response rating (0 to 100 scale) [1, 19] | Kochia plant response rating (0 to 100 scale) (kochia (Bassia scoparia) [4]; [22]) | Ryegrass, Italian plant response rating (0 to 100 scale) ([7]; Postemergence, 31 g ai/ha) | Foxtail, Giant plant response rating (0 to 100 scale) [10, 20] | Galium plant response rating (0 to 100 scale) ([11]; Postemergence, 31 g ai/ha) | Pigweed plant response rating (0 to 100 scale) [13, 20]
50: Barnyardgrass plant response rating (0 to 100 scale) [2, 22]
30: Barnyardgrass plant response rating (0 to 100 scale) [2, 19] | Blackgrass plant response rating (0 to 100 scale) ([9]; Postemergence, 31 g ai/ha) | Wheat plant response rating (0 to 100 scale) ([15]; Postemergence, 31 g ai/ha)
10: Kochia plant response rating (0 to 100 scale) (kochia (Bassia scoparia) [4]; [19]) | Corn plant response rating (0 to 100 scale) (corn (Zea mays); Postemergence, 31 g ai/ha)
15: Plant response rating, Rice (Flood) (rice (Oryza sativa))
20: Ragweed plant response rating (0 to 100 scale) [6, 19] | Corn plant response rating (0 to 100 scale) (corn (Zea mays); [20])
40: Ragweed plant response rating (0 to 100 scale) [6, 22] | Barnyardgrass plant response rating (0 to 100 scale) ([8]; Postemergence, 31 g ai/ha)
80: Foxtail, Giant plant response rating (0 to 100 scale) [3, 19] | Foxtail, Giant plant response rating (0 to 100 scale) [3, 22] | Blackgrass plant response rating (0 to 100 scale) [9, 20] | Kochia plant response rating (0 to 100 scale) (kochia (Bassia scoparia) [12]; [20]) | Ragweed plant response rating (0 to 100 scale) [14, 20]
65: Plant response rating, Sedge, Umbrella (Flood) [18]
100: Ryegrass, Italian plant response rating (0 to 100 scale) [1, 22] | Pigweed plant response rating (0 to 100 scale) [5, 22] | Ryegrass, Italian plant response rating (0 to 100 scale) [7, 20] | Galium plant response rating (0 to 100 scale) [11, 20]
25: Plant response rating, Barnyardgrass (Flood) [16]

C#CCO/N=C(/c1ccc(F)c(Br)c1)c1c(O)c(C)nn(C)c1=O [Compound 163]
50: Foxtail, Giant plant response rating (0 to 100 scale) ([3]; 125 g ai/ha) | Kochia plant response rating (0 to 100 scale) (kochia (Bassia scoparia) [4]; 125 g ai/ha) | Pigweed plant response rating (0 to 100 scale) ([5]; 125 g ai/ha) | Ryegrass, Italian plant response rating (0 to 100 scale) ([7]; Postemergence, 31 g ai/ha) | Barnyardgrass plant response rating (0 to 100 scale) [8, 20] | Kochia plant response rating (0 to 100 scale) (kochia (Bassia scoparia) [12]; [20])
60: Blackgrass plant response rating (0 to 100 scale) [9, 20] | Ragweed plant response rating (0 to 100 scale) [14, 20] | Wheat plant response rating (0 to 100 scale) ([15]; Postemergence, 31 g ai/ha)
40: Pigweed plant response rating (0 to 100 scale) ([13]; Postemergence, 31 g ai/ha)
80: Wheat plant response rating (0 to 100 scale) [15, 20]
70: Ryegrass, Italian plant response rating (0 to 100 scale) [1, 19] | Foxtail, Giant plant response rating (0 to 100 scale) [10, 20] | Galium plant response rating (0 to 100 scale) ([11]; Postemergence, 31 g ai/ha) | Pigweed plant response rating (0 to 100 scale) [13, 20]
30: Barnyardgrass plant response rating (0 to 100 scale) ([2]; 125 g ai/ha) | Pigweed plant response rating (0 to 100 scale) [5, 19] | Corn plant response rating (0 to 100 scale) (corn (Zea mays); [20]) | Kochia plant response rating (0 to 100 scale) (kochia (Bassia scoparia) [12]; Postemergence, 31 g ai/ha) | Ragweed plant response rating (0 to 100 scale) ([14]; Postemergence, 31 g ai/ha)
100: Ryegrass, Italian plant response rating (0 to 100 scale) ([1]; 125 g ai/ha)
90: Ryegrass, Italian plant response rating (0 to 100 scale) [7, 20] | Galium plant response rating (0 to 100 scale) [11, 20]
0: Barnyardgrass plant response rating (0 to 100 scale) [2, 19] | Kochia plant response rating (0 to 100 scale) (kochia (Bassia scoparia) [4]; [19]) | Ragweed plant response rating (0 to 100 scale) ([6]; 125 g ai/ha) | Ragweed plant response rating (0 to 100 scale) [6, 19] | Corn plant response rating (0 to 100 scale) (corn (Zea mays); Postemergence, 31 g ai/ha) | Plant response rating, Barnyardgrass (Flood) [16] | Plant response rating, Ducksalad (Flood) [17] | Plant response rating, Rice (Flood) (rice (Oryza sativa)) | Plant response rating, Sedge, Umbrella (Flood) [18]
20: Barnyardgrass plant response rating (0 to 100 scale) ([8]; Postemergence, 31 g ai/ha) | Blackgrass plant response rating (0 to 100 scale) ([9]; Postemergence, 31 g ai/ha) | Foxtail, Giant plant response rating (0 to 100 scale) ([10]; Postemergence, 31 g ai/ha)
10: Foxtail, Giant plant response rating (0 to 100 scale) [3, 19]
